Source: a melting point compilation (Tetko et al.; mined from patent text by program, amines drawn as free bases though some values may be those of a salt)

Q: Which melting point does the source give for `CCOc1nc(NCc2ccncc2)nc(Nc2ccc3[nH]c(=O)[nH]c3c2)n1` here?
A: Its melting point is 210 to 212 °C.

Q: Which melting point does the source give for `CC(=O)Nc1c(C#N)cnn1-c1c(Cl)cc(Cl)c(Cl)c1Cl` here?
A: The melting point was 115 °C.

Q: Which melting point does the source give for `CCCN(CCC)c1c([N+](=O)[O-])cc(C(C)=O)cc1[N+](=O)[O-]` here?
A: Its melting point is 71 to 72 °C.

Q: Which melting point does the source give for `CC(C#CCOc1cccc(Oc2ccccc2)c1)N(O)C(N)=O` (stereo not given) here?
A: The melting point was 98 to 100 °C.

Q: Which melting point does the source give for `CC(=O)OCc1ccc2oc(=O)c(C(=O)Oc3cc(F)ccc3Br)cc2c1` here?
A: The melting point was 148 to 150 °C.

Q: With `Cc1cc(CNC(=O)c2nc3ccc(F)c(OCCc4ccc(C(=O)O)cc4)c3c(=O)[nH]2)ccc1F` as the compound, how does the melting point read?
A: Its melting point is 267 to 268 °C.

Q: Which melting point does the source give for `COc1ccc(C2c3ccccc3C(c3ccc4c(c3)OCO4)C2c2nnn[nH]2)cc1` (stereo not given) here?
A: Its melting point is 155 to 157 °C.

Q: For `CCC(CC)c1ccc(Cl)c2[nH]c(=O)n(C)c12`, which melting point is on record?
A: The melting point was 165 to 166 °C.

Q: For `Cc1cc(Oc2ccc(F)cc2[N+](=O)[O-])n[nH]1`, which melting point is on record?
A: The melting point was 81 to 84 °C.

Q: For `COc1ccc(-c2cnoc2-c2ccc(OC(C)C)cc2O)cc1`, which melting point is on record?
A: The melting point was 148 to 149 °C.

Q: With `O=C(O)c1cn(C2CC2)c2cc(N3CCN(C(=O)OCCn4cccn4)CC3)c(F)cc2c1=O` as the compound, how does the melting point read?
A: Its melting point is 205 to 208 °C.

Q: With `CCc1ccc(C(=NO)c2ccc(Cl)cc2)c(O)c1` as the compound, how does the melting point read?
A: The melting point was 159 to 161 °C.

Q: With `COc1ccc(OC)c(-c2cn(C)cc(C#N)c2=O)c1` as the compound, how does the melting point read?
A: The melting point was 209 to 211 °C.

Q: With `ON=C1CCc2cc(F)ccc21` as the compound, how does the melting point read?
A: The melting point was 150 to 155 °C.

Q: For `O=Cc1cc2n(n1)-c1ccc(Cl)cc1C(c1ccccc1)NC2=O` (stereo not given), which melting point is on record?
A: Its melting point is 276 to 278 °C.

Q: For `COC(=O)c1cccc(S(=O)(=O)N(C)C)c1CS(N)(=O)=O`, which melting point is on record?
A: The melting point was 133 to 142 °C.

Q: Which melting point does the source give for `COc1cc2ncnc(-c3nnn[nH]3)c2cc1OC` here?
A: The melting point was 207 °C.

Q: For `CCOC(=O)C=C(C)c1ccc(-c2ccc(F)cc2F)cc1`, which melting point is on record?
A: The melting point was 54 to 56 °C.

Q: Which melting point does the source give for `O=C(O)c1ccc(C(c2ccc(C(=O)O)c([N+](=O)[O-])c2)(C(F)(F)F)C(F)(F)F)cc1[N+](=O)[O-]` here?
A: The melting point was 235 to 238 °C.

Q: For `O=C(Oc1cccc2c(OC(=O)c3ccc(O)cc3)c3c(OC(=O)c4ccc(O)cc4)cccc3cc12)c1ccc(O)cc1`, which melting point is on record?
A: The melting point was 326 °C.

Q: For `Cc1c(OC(F)F)ccnc1CSc1nc2ccc(O)cc2[nH]1`, which melting point is on record?
A: Its melting point is 214 to 215 °C.

Q: With `C=C1CCC2C3CCC4CC(O)C(OCC)CC4(C)C3C(=O)CC12C` (stereo not given) as the compound, how does the melting point read?
A: Its melting point is 103 to 108 °C.

Q: For `CCCCOCCOc1ccc(-c2ccc3c(c2)C=C(C(=O)Nc2ccc(CSc4nncs4)cc2)CCN3CC(C)C)cc1`, which melting point is on record?
A: Its melting point is 77 to 79 °C.

Q: With `O=C(c1ccccc1)C(O)CCl` (stereo not given) as the compound, how does the melting point read?
A: The melting point was 42 to 45 °C.

Q: Which melting point does the source give for `CC1Cc2cc(S(=O)(=O)N3CCN(c4cccc(Cl)c4)CC3)ccc2N1C(=O)CCC(=O)O` (stereo not given) here?
A: The melting point was 210 °C.

Q: Which melting point does the source give for `CC(C)NC1=NS(=O)(=O)c2sc(Br)cc2N1` here?
A: The melting point was 279 °C.

Q: For `Cc1c(NC(=O)c2ccc(-c3ccccc3)c(F)c2)ccc2cc(CN3CCCC3)cnc12`, which melting point is on record?
A: Its melting point is 156 to 158 °C.

Q: For `Cc1ccc2c(c1)C(=O)CC2c1ccc(F)cc1` (stereo not given), which melting point is on record?
A: Its melting point is 68 to 70 °C.

Q: With `Cn1ncc(/C=C/C(=O)Nc2ccc(Cc3nc4c(s3)CCCC4)cc2)c1-c1ccc(F)cc1` as the compound, how does the melting point read?
A: The melting point was 205 to 206 °C.

Q: With `CC(C)(CO)Nc1nc2c(s1)CCc1cc(C#N)ccc1-2` as the compound, how does the melting point read?
A: Its melting point is 121 to 123 °C.

Q: Which melting point does the source give for `Nc1nc(NCCC2CCCCC2)nc2c1ncn2C1OC(CO)C(O)C1O` (stereo not given) here?
A: Its melting point is 142 to 145 °C.

Q: For `OCCc1cccc2c(-c3ccccc3)c(Br)oc12`, which melting point is on record?
A: Its melting point is 108 to 112 °C.

Q: For `Cn1cc(C(=O)NCc2ccc(Cl)cc2)c(=O)c2cc(CCCCO)oc21`, which melting point is on record?
A: The melting point was 157 to 160 °C.

Q: For `O=C1CCN(Cc2cc([N+](=O)[O-])ccc2O)CC1C(c1ccc(F)cc1)c1ccc(F)cc1` (stereo not given), which melting point is on record?
A: The melting point was 169 to 170 °C.

Q: With `Cc1c(NC(=O)c2ccc(OC[C@@H]3CCCO3)cc2)ccc2cc(CNCC3(C)COC3)cnc12` as the compound, how does the melting point read?
A: The melting point was 117 to 119 °C.

Q: With `O=C(c1cc2ccccc2[nH]1)C1CSC(c2cccnc2)N1` (stereo not given) as the compound, how does the melting point read?
A: Its melting point is 142 to 144 °C.

Q: Which melting point does the source give for `CCCN(C(N)=S)c1cccc2ccccc12` here?
A: Its melting point is 170 to 171 °C.

Q: For `Cc1cc(N(N)c2ccccc2)nc(N)n1`, which melting point is on record?
A: Its melting point is 173 to 174 °C.

Q: Which melting point does the source give for `O=c1[nH]c2ccc(Cl)cc2n1C1CCNCC1` here?
A: The melting point was greater than 300 °C.

Q: Which melting point does the source give for `CCCOc1ccccc1-c1nc2nc(OCC)ncc2c(=O)[nH]1` here?
A: The melting point was 196 to 198 °C.

Q: Which melting point does the source give for `O=[N+]([O-])c1cnc2cc3c(cc2c1-c1ccccc1Cl)CCC3` here?
A: The melting point was 175 to 176 °C.

Q: With `COc1ccc(C2CCCCC2)cc1-c1csc(NC(=O)N2CCN(C3CCOCC3)CC2)n1` as the compound, how does the melting point read?
A: The melting point was 226 °C.

Q: Which melting point does the source give for `CC(C)[C@H](NC(=O)[C@H](C)NC(=O)OCc1ccccc1)[C@@H](O)c1c(-c2ccccc2)c1=O` here?
A: The melting point was 156 to 158 °C.

Q: For `CN1CCC(c2c[nH]c3ccc(NC(=O)c4ccc(F)cc4Cl)cc23)CC1`, which melting point is on record?
A: Its melting point is 159 to 162 °C.

Q: For `Fc1ccc2[nH]c(CN3C[C@@H]4C[C@H]3CN4c3ccccn3)cc2c1`, which melting point is on record?
A: The melting point was 211 to 214 °C.

Q: Which melting point does the source give for `O=C(Nc1ccc(C(=O)N2Cc3cccn3Cc3ccccc32)cc1)c1cccc(F)c1F` here?
A: Its melting point is 252 to 258 °C.

Q: With `CCCCCCCCCCCCCCOc1cc(OCCCOc2ccc(OCc3ccccc3)cc2)cc(C(=O)OC)c1` as the compound, how does the melting point read?
A: Its melting point is 69 to 70 °C.

Q: For `O=CN(O)C(CS(=O)(=O)c1ccc(-c2ccc(C(F)(F)F)cc2)cc1)c1ccc(O)cc1` (stereo not given), which melting point is on record?
A: Its melting point is 225 °C.

Q: For `Cc1ccc(S(=O)(=O)N(CCN=[N+]=[N-])CCN=[N+]=[N-])cc1`, which melting point is on record?
A: The melting point was 47 to 48 °C.

Q: Which melting point does the source give for `CC(C)Oc1ccc(-c2ccc3oc(C4CCN(C(=O)OC(C)(C)C)CC4)nc3c2)cc1F` here?
A: The melting point was 124 to 128 °C.
